Reference: PubChem BioAssay AID504539 (Broad Institute, 2011)

Each molecule was assayed on Cell-based prion protein 5' UTR reporter, plate reader (assay: prion protein 5' UTR mRNA inhibitors – cell-based, plate reader, cherry-picked samples, dose response (AID 504539)).

Question: Which AC50 does the source give for `CCCC[C@@H](C)C[C@@H](C)C(=O)N(C)[C@@H](CC(C)C)C(=O)N[C@H](C(=O)N(C)[C@H](C(=O)N1C[C@@H](O)C[C@H]1C(=O)N1C(=O)C=C[C@@H]1C)C(C)C)C(C)OC(C)=O` (stereo partly specified) here?
Answer: Its AC50 is < 38 nM.

Question: `O=C(O)c1cccc(N/N=C/c2cccs2)c1` was tested. Which AC50 did it give?
Answer: The AC50 was 349 nM.

Question: `CCN(CCCl)c1cc(CN(C)C)cc(NC(=O)c2ccc(C(=O)Nc3cc(CN(C)C)cc(N(CC)CCCl)c3)cc2)c1` was tested. Which AC50 did it give?
Answer: Its AC50 is 472 nM.

Question: `CN(C)c1ccc(CCc2ccc(N)cc2)cc1` was tested. Which AC50 did it give?
Answer: Its AC50 is 831 nM.

Question: For `Cc1c(C(=O)OCCOC(C)C)[nH]c2c1C(=O)CC(c1ccco1)C2` (stereo unspecified), which AC50 is on record?
Answer: Its AC50 is 450 nM.

Question: Which AC50 does the source give for `Fc1ccc(-n2nnc(-c3cnc4ccccc4c3)n2)cc1` here?
Answer: The AC50 was 1040 nM.

Question: With `C[C@@H]1O[C@@H](O[C@@H]2C=C3CC[C@@H]4C(CC[C@]5(C)[C@@H](c6ccc(=O)oc6)CC[C@]45O)[C@@]3(C)CC2)[C@H](O)[C@H](O)[C@H]1O` (stereo partly specified) as the molecule, how does the AC50 read?
Answer: The AC50 was < 38 nM.

Question: With `COc1ccccc1NC(=O)c1oc2ccccc2c1NC(=O)c1cc(OC)c(OC)c(OC)c1` as the molecule, how does the AC50 read?
Answer: Its AC50 is 537 nM.

Question: Which AC50 does the source give for `Cc1nn(-c2nc3ccccc3[nH]2)c(=O)c2ccccc12` here?
Answer: The AC50 was 145 nM.

Question: For `COc1ccc(C(=O)O/N=C(\N)c2ccccn2)cc1`, which AC50 is on record?
Answer: The AC50 was 99 nM.

Question: `O=C(N/N=C/c1c[nH]c2ccccc12)c1[nH]c2ccc(Br)cc2c1-c1ccccc1` was tested. Which AC50 did it give?
Answer: Its AC50 is 774 nM.

Question: How did the AC50 turn out when `COC(=O)c1nn(-c2ccc3c(c2)CCN3C(C)=O)cc1O` was run?
Answer: The AC50 was 300 nM.

Question: With `C[C@]12CC[C@H](O)C[C@H]1CC[C@@H]1[C@@H]2CC[C@]2(C)[C@@H](C3=CC(=O)OC3)CC[C@]12O` as the molecule, how does the AC50 read?
Answer: Its AC50 is 235 nM.

Question: With `CN(C(=O)OC(C)(C)C)c1ccc(-c2nc3ccccc3s2)cc1` as the molecule, how does the AC50 read?
Answer: Its AC50 is < 38 nM.

Question: With `COc1ccc(-n2ncc3c(N(C)C4CCCCC4)ncnc32)cc1` as the molecule, how does the AC50 read?
Answer: Its AC50 is 1520 nM.

Question: For `N#CC1=C(N)Oc2c(ccc3ccccc23)C1c1ccsc1` (stereo unspecified), which AC50 is on record?
Answer: Its AC50 is 831 nM.

Question: For `CN(C)c1ccc2c(c1)OC(N)=C(C#N)C2c1cccc(F)c1` (stereo unspecified), which AC50 is on record?
Answer: The AC50 was 179 nM.

Question: `Cc1ccc(CCC(=O)Nc2ncc(Cc3cc(Cl)ccc3Cl)s2)o1` was tested. Which AC50 did it give?
Answer: Its AC50 is 841 nM.

Question: For `CC1CCc2c(sc(NC(=O)CSc3ncn[nH]3)c2C#N)C1` (stereo unspecified), which AC50 is on record?
Answer: Its AC50 is 257 nM.

Question: `c1ccc(-c2noc(-c3ccc4c(c3)OCO4)n2)nc1` was tested. Which AC50 did it give?
Answer: Its AC50 is 140 nM.

Question: With `Cc1cc(C(=O)COC(=O)C2=COCCO2)c(C)n1-c1ccccc1` as the molecule, how does the AC50 read?
Answer: Its AC50 is 1170 nM.

Question: `C=CC[n+]1c(-c2ccc(C)cc2)csc1Nc1ccc(NC(C)=O)cc1` was tested. Which AC50 did it give?
Answer: The AC50 was 3620 nM.

Question: For `COc1cc(SC)ccc1C(=O)Nc1nc2ccccc2[nH]1`, which AC50 is on record?
Answer: The AC50 was < 38 nM.

Question: For `N/C(=N\OC(=O)c1ccc(Cl)cc1Cl)c1ccccn1`, which AC50 is on record?
Answer: Its AC50 is 539 nM.

Question: `O=c1c2ccccc2oc2cc(C#CC3(O)CCCCC3)ccc12` was tested. Which AC50 did it give?
Answer: The AC50 was 1840 nM.

Question: How did the AC50 turn out when `Cc1nn(-c2ccccc2Cl)c(Cl)c1/C=N/Nc1nc2ccccc2s1` was run?
Answer: Its AC50 is < 38 nM.

Question: With `Cc1ccc(-c2nc(-c3ccccn3)no2)cc1Cl` as the molecule, how does the AC50 read?
Answer: The AC50 was 351 nM.

Question: With `COc1cc(SC)ccc1C(=O)Nc1ccc(Cl)cn1` as the molecule, how does the AC50 read?
Answer: Its AC50 is 567 nM.

Question: How did the AC50 turn out when `COc1ccc(CC2NCC(O)C2OC(C)=O)cc1` (stereo unspecified) was run?
Answer: The AC50 was 168 nM.

Question: How did the AC50 turn out when `Cc1ccc(-c2cc(C(=O)N/N=C/c3c(C)nn(-c4ccccc4)c3C)[nH]n2)cc1` was run?
Answer: The AC50 was 3000 nM.

Question: How did the AC50 turn out when `O=C(c1ccc(Br)cc1)c1cc([N+](=O)[O-])ccc1N1CCCCC1` was run?
Answer: The AC50 was 628 nM.

Question: With `Cc1cccc2cc(C#N)c(SCC(=O)N3CC(=O)Nc4ccccc43)nc12` as the molecule, how does the AC50 read?
Answer: Its AC50 is 960 nM.

Question: `Cc1ccc(C(C)C)c(OCc2ccc(C(=O)N/N=C/c3cccc(O)c3O)cc2)c1` was tested. Which AC50 did it give?
Answer: The AC50 was 1510 nM.

Question: For `CCN(CC)c1ccc2c(cc1=O)[C@@H](NC)CCc1cc(OC)c(OC)c(OC)c1-2`, which AC50 is on record?
Answer: Its AC50 is 634 nM.

Question: `COC1C(O)C(C)OC(OC2CCC3(C=O)C(CCC4C3CCC3(C)C(C5=CC(=O)OC5)CCC43O)C2)C1O` (stereo unspecified) was tested. Which AC50 did it give?
Answer: Its AC50 is < 38 nM.

Question: `O=C1N(c2ccccc2)C[C@@H]2C[C@@H](c3cc4ccccc4o3)N3CCC[C@@]123` was tested. Which AC50 did it give?
Answer: The AC50 was 511 nM.

Question: With `Cc1ccc(C(=O)N/N=C/c2ccc([N+](=O)[O-])s2)cc1` as the molecule, how does the AC50 read?
Answer: Its AC50 is 1010 nM.

Question: `CCC(C)(O)C(=O)OC1C(=O)OC2CC3C(C)=CC(=O)C(O)C3(C)C3C4(O)OCC23C1C(C)C4O` (stereo unspecified) was tested. Which AC50 did it give?
Answer: Its AC50 is 178 nM.

Question: `COc1cccc(C(=O)O/N=C(\N)c2ccccn2)c1` was tested. Which AC50 did it give?
Answer: Its AC50 is 448 nM.

Question: Which AC50 does the source give for `Nc1ncnc2c(C3OC(CO)C(O)C3O)scc12` (stereo unspecified) here?
Answer: The AC50 was 2450 nM.

Question: With `CC(=NNC(=S)N(Cc1ccccn1)Cc1ccccn1)c1cnccn1` as the molecule, how does the AC50 read?
Answer: Its AC50 is 878 nM.

Question: For `O=[N+]([O-])c1cccc2nc3ccccc3c(NCCCn3ccnc3[N+](=O)[O-])c12`, which AC50 is on record?
Answer: The AC50 was 76 nM.

Question: Which AC50 does the source give for `CC(C)(O)/C=C/C(=O)C(C)(O)C1C(O)CC2(C)C3CC=C4C(C=C(O)C(=O)C4(C)C)C3(C)C(=O)CC12C` (stereo unspecified) here?
Answer: Its AC50 is 104 nM.

Question: `CN(C)CCNc1ccc2ncn3c4ccc(O)cc4c(=O)c1c23` was tested. Which AC50 did it give?
Answer: Its AC50 is 2470 nM.

Question: `Cc1ccc2nc(NC(=O)c3ccccn3)sc2c1` was tested. Which AC50 did it give?
Answer: Its AC50 is 220 nM.

Question: With `Cc1c(C(=O)OC2CCCC2)[nH]c2c1C(=O)CC(c1ccco1)C2` (stereo unspecified) as the molecule, how does the AC50 read?
Answer: Its AC50 is 791 nM.

Question: Which AC50 does the source give for `CC(=O)O[C@H]1C(=O)[C@]2(C)[C@H]([C@H](OC(=O)c3ccccc3)[C@]3(O)C[C@H](OC(=O)[C@H](O)[C@@H](NC(=O)c4ccccc4)c4ccccc4)C(C)=C1C3(C)C)[C@]1(OC(C)=O)CO[C@@H]1C[C@@H]2O` here?
Answer: The AC50 was 188 nM.

Question: `Cc1cc(C(=O)CSc2nnc3ccccn23)c(C)n1-c1ccccc1` was tested. Which AC50 did it give?
Answer: The AC50 was 480 nM.

Question: For `COc1cc2c(c(OC)c1OC)-c1ccc(O)cc1C(NC(C)=O)CC2` (stereo unspecified), which AC50 is on record?
Answer: The AC50 was 128 nM.

Question: With `CN1CCN(c2ccc([N+](=O)[O-])c3no[n+]([O-])c23)CC1` as the molecule, how does the AC50 read?
Answer: The AC50 was 2340 nM.

Question: How did the AC50 turn out when `C[C@H]1CCC/C=C/[C@@H]2C[C@H](O)C[C@H]2[C@@H](O)/C=C/C(=O)O1` was run?
Answer: The AC50 was < 38 nM.
